Experimental data published in patent USRE50528E1, “Compounds and compositions for modulating EGFR mutant kinase activities” (Yuhan Corporation, priority 2014, dated 2025).
Like-named read-outs stand apart in the source and are kept apart here.

Assays:
[1] = tested on: PC9 (EGFR del E746-A750 mutant); assay: Cell viability assay, PC9; assay type: cell-based; conditions: for Selectivity over wildtype, Wildtype vs mutant H2073/PC9 (fold): cellular potency ratio; for IC50: cellular potency, 72-hour incubation, ATPLite, read-out: EGFR Mutants PC9;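 for all read-outs here: NSCLC PC9 cells, whose viability relies on EGFR del E746-A750, exposed to serially diluted compound for 72 h at 37 °C, ATPLite read-out, IC50, H2073 as EGFR wildtype line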
H2073 (EGFR wildtype) = assay: Cell viability assay, H2073; assay type: cell-based; conditions: cellular potency, 72-hour incubation, ATPLite;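 note: NSCLC cell line whose survival relies on wildtype EGFR, treated with serially diluted compound, cytotoxic effect judged from remaining cell viability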
EGFR mutant Del19/T790M = molecular target: T1, EGFR mutant Del19/T790M (Homo sapiens, UniProt P00533, DEL746-750/T790M); assay: Kinase inhibition assay, EGFR del E746-A750/T790M; assay type: biochemical; conditions: read-out: EGFR mutants Del19/T790M
T1 construct: truncated human JAK3, EGFR mutants such as del E746-A750; purchased Carna Biosciences

SYK = molecular target: T2, SYK (Homo sapiens, UniProt P43405); assay: Kinase inhibition assay, SYK; assay type: biochemical; conditions: biochemical potency;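 note: purified full-length human SYK pre-incubated 30 min with compound, then ULight-TK peptide phosphorylation for 1 h, detected with Europium-labeled antibody in Lance buffer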
T2 construct: Purified human, full-length SYK, KDR; purchased Carna Biosciences

[2] = tested on: H1975 (EGFR L858R/T790M mutant); assay: Cell viability assay, H1975; assay type: cell-based; conditions: for IC50: cellular potency, 72-hour incubation, ATPLite, read-out: EGFR Mutants H1975; for Selectivity over wildtype, Wildtype vs mutant H2073/H1975 (fold): cellular potency ratio;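 for all read-outs here: NSCLC cells whose survival relies on EGFR L858R/T790M, exposed 72 h to serially diluted compound, ATP-based viability readout, with the H2073 line (wildtype EGFR dependent) as wildtype comparator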
[3] = molecular target: T3, EGFR mutant Del19 (E746-A750) (Homo sapiens, UniProt P00533, DEL746-750); assay: Kinase inhibition assay, EGFR del E746-A750; assay type: biochemical; conditions: read-out: EGFR mutants Del19 (E746-A750);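 note: truncated human EGFR mutant kinase, two-hour preincubation with compound, then one-hour reaction with ATP and ULight-PolyGT peptide, LANCE Europium-antibody phosphorylation readout, IC50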
T3 construct: truncated human JAK3, EGFR mutants such as del E746-A750; purchased Carna Biosciences

EGFR mutant T790M = molecular target: T4, EGFR mutant T790M (Homo sapiens, UniProt P00533, T790M); assay: Kinase inhibition assay, EGFR mutant T790M; conditions: biochemical potency;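 note: truncated human EGFR mutant enzyme preincubated two hours with compound, then ATP plus ULight-PolyGT peptide for one hour, Europium-labeled antibody LANCE detection, IC50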
T4 construct: truncated human JAK3, EGFR mutants such as del E746-A750; purchased Carna Biosciences

EGFR mutant L858R/T790M = molecular target: T5, EGFR mutant L858R/T790M (Homo sapiens, UniProt P00533, L858R/T790M); assay: Kinase inhibition assay, EGFR L858R/T790M; assay type: biochemical; conditions: read-out: EGFR mutants L858R/T790M;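 note: truncated human enzyme preincubated two hours with compound, then one hour with one millimolar ATP and ULight-PolyGT peptide, Europium-labeled antibody detection, IC50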
T5 construct: truncated human JAK3, EGFR mutants such as del E746-A750; purchased Carna Biosciences

EGFR mutant L858R = molecular target: T6, EGFR mutant L858R (Homo sapiens, UniProt P00533, L858R); assay: Kinase inhibition assay, EGFR L858R; assay type: biochemical; conditions: read-out: EGFR mutants L858R;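 note: truncated human EGFR L858R kinase with compound preincubation, ULight-PolyGT peptide phosphorylation read by Europium-antibody Lance detection, IC50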
T6 construct: truncated human JAK3, EGFR mutants such as del E746-A750; purchased Carna Biosciences

IC50 [1] | IC50 (H2073 (EGFR wildtype); NCI-H2073) | IC50 (EGFR mutant Del19/T790M) | IC50 (SYK) | IC50 ([2]; Homo sapiens, NCI-H1975) | IC50 [3] | IC50 (EGFR mutant T790M) | IC50 (EGFR mutant L858R/T790M) | IC50 (EGFR mutant L858R) | Compound | Selectivity over wildtype, Wildtype vs mutant H2073/PC9 (fold) [1] | Selectivity over wildtype, Wildtype vs mutant H2073/H1975 (fold) [2] | IC50 (H2073 (EGFR wildtype)) | IC50 (EGFR mutant Del19/T790M; biochemical potency, 1 mM ATP) | IC50 [2] | IC50 ([3]; biochemical potency, 1 mM ATP) | IC50 (EGFR mutant L858R/T790M; biochemical potency, 1 mM ATP) | IC50 (EGFR mutant L858R; biochemical potency, 1 mM ATP)
> 1000 nM | > 1000 nM | > 1000 nM | 20 to 200 nM | > 1000 nM | > 1000 nM | > 1000 nM | 201 to 1000 nM | > 1000 nM | Cc1cc(C)cc(Nc2nccc(-n3cc(CN4CC(O)C4)c(C)n3)n2)c1 [Compound 147, 1-((1-(2-(3,5-dimethylphenylamino)pyrimidin-4-yl)-3-methyl-1H-pyrazol-4-yl)methyl)azetidin-3-ol, reference compound] | <20 fold | <20 fold | – | – | – | – | – | –
> 1000 nM | > 1000 nM | 201 to 1000 nM | 201 to 1000 nM | > 1000 nM | > 1000 nM | > 1000 nM | 20 to 200 nM | 20 to 200 nM | Cc1cc(Nc2nccc(-n3cc(CN4CC(O)C4)c(C4CC4)n3)n2)cc(C)c1OCCO [Compound 151, 1-((3-cyclopropyl-1-(2-(4-(2-hydroxyethoxy)-3,5-dimethylphenylamino)pyrimidin-4-yl)-1H-pyrazol-4-yl)methyl)azetidin-3-ol, reference compound] | <20 fold | <20 fold | – | – | – | – | – | –
> 1000 nM | > 1000 nM | > 1000 nM | > 1000 nM | > 1000 nM | > 1000 nM | > 1000 nM | > 1000 nM | > 1000 nM | CCC(=O)Nc1cc(Nc2nccc(-n3cc(CN(C)C)c(-c4ccccc4)n3)n2)c(OC)cc1N1CCOCC1 [Compound 157, N-(5-(4-(4-((dimethylamino)methyl)-3-phenyl-1H-pyrazol-1-yl)pyrimidin-2-ylamino)-4-methoxy-2-morpholinophenyl)propionamide, reference compound] | <20 fold | <20 fold | – | – | – | – | – | –
20 to 200 nM | > 1000 nM | > 1000 nM | > 1000 nM | 201 to 1000 nM | > 1000 nM | > 1000 nM | > 1000 nM | > 1000 nM | CCC(=O)Nc1cc(Nc2nccc(-n3cc(CN4CCC4)c(-c4ccccc4)n3)n2)c(OC)cc1N1CCOCC1 [Compound 158, N-(5-(4-(4-(azetidin-1-ylmethyl)-3-phenyl-1H-pyrazol-1-yl)pyrimidin-2-ylamino)-4-methoxy-2-morpholinophenyl)propionamide, reference compound] | <20 fold | <20 fold | – | – | – | – | – | –
< 20 nM | 201 to 1000 nM | < 20 nM | > 1000 nM | < 20 nM | < 20 nM | < 20 nM | < 20 nM | < 20 nM | C=CC(=O)Nc1cc(Nc2nccc(-n3cc(CN(C)C)c(C(C)C)n3)n2)c(OC)cc1N1CCOCC1 [Compound 93, N-(5-(4-(4-((dimethylamino)methyl)-3-isopropyl-1H-pyrazol-1-yl)pyrimidin-2-ylamino)-4-methoxy-2-morpholinophenyl)acrylamide] | 20-200 fold | 20-200 fold | – | – | – | – | – | –
20 to 200 nM | > 1000 nM | < 20 nM | 20 to 200 nM | 20 to 200 nM | < 20 nM | < 20 nM | < 20 nM | < 20 nM | C=CC(=O)Nc1cc(Nc2nccc(-n3cc(CN(C)C)c(C4CC4)n3)n2)c(OC)cc1N(C)CCOC [Compound 106, N-(5-(4-(3-cyclopropyl-4-((dimethylamino)methyl)-1H-pyrazol-1-yl)pyrimidin-2-ylamino)-4-methoxy-2-((2-methoxyethyl)(methyl)amino)phenyl)acrylamide] | 101-200 fold | 101-200 fold | – | – | – | – | – | –
< 20 nM | 20 to 200 nM | < 20 nM | > 1000 nM | < 20 nM | < 20 nM | < 20 nM | < 20 nM | < 20 nM | C=CC(=O)Nc1cc(Nc2nccc(-n3cc(CN(C)C)c(-c4ccccc4)n3)n2)c(OC)cc1N1CCC1 [Compound 84, N-(2-(azetidin-1-yl)-5-(4-(4-((dimethylamino)methyl)-3-phenyl-1H-pyrazol-1-yl)pyrimidin-2-ylamino)-4-methoxyphenyl)acrylamide] | <20 fold | <20 fold | – | – | – | – | – | –
< 20 nM | > 1000 nM | < 20 nM | > 1000 nM | < 20 nM | < 20 nM | < 20 nM | < 20 nM | < 20 nM | C=CC(=O)Nc1cc(Nc2nccc(-n3cc(CN(C)CC)c(-c4ccccc4)n3)n2)c(OC)cc1N1CCOCC1 [Compound 92, N-(5-(4-(4-((ethyl(methyl)amino)methyl)-3-phenyl-1H-pyrazol-1-yl)pyrimidin-2-ylamino)-4-methoxy-2-morpholinophenyl)acrylamide] | >200 fold | >200 fold | – | – | – | – | – | –
> 1000 nM | > 1000 nM | 20 to 200 nM | > 1000 nM | > 1000 nM | > 1000 nM | > 1000 nM | 20 to 200 nM | > 1000 nM | C=C(F)C(=O)Nc1cc(Nc2nccc(-n3cc(CN4CCC4)c(-c4ccccc4)n3)n2)c(OC)cc1N1CCOCC1 [Compound 159, N-(5-(4-(4-(azetidin-1-ylmethyl)-3-phenyl-1H-pyrazol-1-yl)pyrimidin-2-ylamino)-4-methoxy-2-morpholinophenyl)-2-fluoroacrylamide, reference compound] | <20 fold | <20 fold | – | – | – | – | – | –
< 20 nM | 201 to 1000 nM | < 20 nM | > 1000 nM | < 20 nM | < 20 nM | 20 to 200 nM | < 20 nM | < 20 nM | C=CC(=O)Nc1cc(Nc2nccc(-n3cc(CN(C)C)c(C(C)(C)C)n3)n2)c(OC)cc1N1CCOCC1 [Compound 86, N-(5-(4-(3-tert-butyl-4-((dimethylamino)methyl)-1H-pyrazol-1-yl)pyrimidin-2-ylamino)-4-methoxy-2-morpholinophenyl)acrylamide] | 20-200 fold | 20-200 fold | – | – | – | – | – | –
> 1000 nM | > 1000 nM | 201 to 1000 nM | 201 to 1000 nM | > 1000 nM | > 1000 nM | > 1000 nM | 201 to 1000 nM | > 1000 nM | Cc1cc(Nc2nccc(-n3cc(CN4CC[C@@H](O)C4)c(C)n3)n2)cc(C)c1OCCN1CCCC1 [Compound 148, (R)-1-((1-(2-(3,5-dimethyl-4-(2-(pyrrolidin-1-yl)ethoxy)phenylamino)pyrimidin-4-yl)-3-methyl-1H-pyrazol-4-yl)methyl)pyrrolidin-3-ol, reference compound] | <20 fold | <20 fold | – | – | – | – | – | –
20 to 200 nM | > 1000 nM | < 20 nM | > 1000 nM | 20 to 200 nM | < 20 nM | 20 to 200 nM | < 20 nM | < 20 nM | C=CC(=O)Nc1cc(Nc2nccc(-n3cc(CN(C)C)c(C(C)(C)C)n3)n2)c(OC)cc1N(C)CCOC [Compound 100, N-(5-(4-(3-tert-butyl-4-((dimethylamino)methyl)-1H-pyrazol-1-yl)pyrimidin-2-ylamino)-4-methoxy-2-((2-methoxyethyl)(methyl)amino)phenyl)acrylamide] | 101-200 fold | 101-200 fold | – | – | – | – | – | –

Compound | IC50 [1] | IC50 (H2073 (EGFR wildtype); NCI-H2073) | IC50 (EGFR mutant Del19/T790M) | IC50 (SYK) | IC50 ([2]; Homo sapiens, NCI-H1975) | IC50 [3] | IC50 (EGFR mutant T790M) | IC50 (EGFR mutant L858R/T790M) | IC50 (EGFR mutant L858R) | Selectivity over wildtype, Wildtype vs mutant H2073/PC9 (fold) [1] | Selectivity over wildtype, Wildtype vs mutant H2073/H1975 (fold) [2] | IC50 (H2073 (EGFR wildtype)) | IC50 (EGFR mutant Del19/T790M; biochemical potency, 1 mM ATP) | IC50 [2] | IC50 ([3]; biochemical potency, 1 mM ATP) | IC50 (EGFR mutant L858R/T790M; biochemical potency, 1 mM ATP) | IC50 (EGFR mutant L858R; biochemical potency, 1 mM ATP)
4-(3-((dimethylamino)methyl)-4-methyl-1H-pyrrol-1-yl)-N-(3,5-dimethylphenyl)pyrimidin-2-amine [Compound 146, reference compound] | > 1000 nM | – | – | 20 to 200 nM | – | – | > 1000 nM | – | – | <20 fold | <20 fold | > 1000 nM | 201 to 1000 nM | > 1000 nM | > 1000 nM | 201 to 1000 nM | > 1000 nM
